Consider one compound from US20200371122A1, “BIOMARKER FOR SENESCENT CELLS” (Buck Institute for Research on Aging, priority 2017, published 2020).

The subject of assay [1] is IL-6 secretion. Nature of the assay: IL-6 ELISA on non-senescent cells treated with prostaglandins. Format: cell-based, human. Particulars: 10 μM, 10 days. On the procedure:
Human fetal lung fibroblasts (IMR-90) were cultured in Dulbecco's modified eagle medium (DMEM) supplemented with 10% FBS and penicillin/streptomycin. LL 29 (AnHa) cells were obtained from the ATCC and growth to confluence using the ATCC protocol, but were subcultured as described for IMR-90 before initiation of all experiments. Quiescence was induced by replacing culture media with media containing 0.2% FBS. MCF-7 and MDA-MB-231 breast cancer cells were cultured in RPMI supplemented with 10% FBS and penicillin/streptomycin. All cells were cultured at 3% O2, and used between 25 and 40 population doublings. All cells were mycoplasma free.
3×10^4 cells in 12-well plates were treated as indicated in the text, and cultured in 0.5-1 ml serum-free DMEM for 24 hr. CM were collected and clarified at 2,000×g for 10 min. Supernatants were transferred to a tube; cells were trypsinized and counted. CM (2.5 μl) were analyzed by bead-based ELISAs (AlphaLISA, Perkin-Elmer) as instructed by the manufacturer and normalized to cell number.

For assay [2], the system named is IMR-90 fibroblasts. Nature of the assay: Induction of senescence in non-senescent cells by prostaglandins or 5-LOX pathway products (EdU, SA-B-gal, p21, immunoblot). It counts as cell-based, human. On the procedure: RNA was extracted from cells or tissues using commercially available kits (Isolate II—Bioline for cells; Direct-zol—Zymo for tissues) according to the manufacturer's instructions. cDNA synthesis was performed using a High Capacity cDNA Reverse Transcription Kit (Thermo Fisher) according to the manufacturer's instructions. Quantitative PCR was performed on a LightCycler 480 II (Roche) using primers and probes designed for the Universal Probe Library. Primers and probes used for human transcripts were ACTB: 5′-CCAACCGCGAGAAGATGA (SEQ ID NO:1), 5′-TCCATCACGATGCCAGTG (SEQ ID NO:2), Probe #64; TUBA: 5′-cttcgtctccgccatcag (SEQ ID NO:3), 5′-ttgccaatctggacacca (SEQ ID NO:4), Probe #58; ALOX5: 5′-[…] (SEQ ID NO:5), 5′-[…] (SEQ ID NO:6), Probe #64; ALOX5AP: 5′-ggtctgcggggctacttt (SEQ ID NO:7), 5′-[…] (SEQ ID NO:8), Probe #18; ALOX12: 5′-[…] (SEQ ID NO:9), 5′-agccaggtcgtcaggag (SEQ ID NO:10), Probe #32; ALOX15: 5′-[…] (SEQ ID NO:11), 5′-[…] (SEQ ID NO:12), Probe #76; ALOX15B: 5′-[…] (SEQ ID NO:13), 5′-actgggaggcgaagaagg (SEQ ID NO:14), Probe #51; AKR1C1: 5′-catgcctgtcctgggattt (SEQ ID NO:15), 5′-[…] (SEQ ID NO:16), Probe #49; AKR1C2: 5′-ctatgcgcctgcagaggt (SEQ ID NO:17), 5′-[…] (SEQ ID NO:18), Probe #31; AKR1C3: 5′-[…] (SEQ ID NO:19), 5′-[…] (SEQ ID NO:20), Probe #78; CYSLTR2: 5′-[…] (SEQ ID NO:21), 5′-[…] (SEQ ID NO:22), Probe #18; DPEP1: 5′-gacgtcctgaggctggtg (SEQ ID NO:23), 5′-[…] (SEQ ID NO:24), Probe #9 (SEQ ID NO:25), ELOVL2: 5′-[…] (SEQ ID NO:26), 5′-[…] (SEQ ID NO:27), Probe #53; ELOVL4: 5′-catttggcccatggattc (SEQ ID NO:28), 5′-[…] (SEQ ID NO:29), Probe #31; ELOVL5: 5′-cccttccatgcgtccata (SEQ ID NO:30), 5′-[…] (SEQ ID NO:31), Probe #31; EPHX2: 5′-ttctgctggacaccctgaa (SEQ ID NO:32), 5′-[…] (SEQ ID NO:33), Probe #45; GPX4: 5′-ttcccgtgtaaccagttcg (SEQ ID NO:34), 5′-[…] (SEQ ID NO:35), Probe #36; LTA4H: 5′-ctgctctcacggtccagtc (SEQ ID NO:36), 5′-[…] (SEQ ID NO:37), Probe #64; LTBR2: 5′-[…] (SEQ ID NO:38), 5′-[…] (SEQ ID NO:39), Probe #33; LTC4S: 5′-[…] (SEQ ID NO:40), 5′-[…] (SEQ ID NO:41), Probe #18; PTGDS: 5′-[…] (SEQ ID NO:42), 5′-[…] (SEQ ID NO:43), Probe #36; PTGES: 5′-agagatgcctgcccacag (SEQ ID NO:44), 5′-tggccaccacgtacatctt (SEQ ID NO:45), Probe #4; PTGES2: 5′-[…] (SEQ ID NO:46), 5′-[…] (SEQ ID NO:47), Probe #49; PTGES3 (SEQ ID NO:48), 5′-[…] (SEQ ID NO:49), 5′-[…] (SEQ ID NO:50), Probe #48; PTGIS: 5′-[…] (SEQ ID NO:51), 5′-[…] (SEQ ID NO:52), Probe #45; PTGR1: 5′-atgatggggcagcaagtg (SEQ ID NO:53), 5′-cccatcagaaatggagtgc (SEQ ID NO:54), Probe #64; PTGS1: 5′-[…] (SEQ ID NO:55), 5′-gtggtggtccatgttcctg (SEQ ID NO:56), Probe #81; PTGS2: 5′-gatccccagggctcaaac (SEQ ID NO:57), 5′-[…] (SEQ ID NO:58), Probe #61; TBXAS1: 5′-[…] (SEQ ID NO:59), 5′-tgcctcccgtgtgaatct (SEQ ID NO:60), Probe #73; AREG: 5′-[…] (SEQ ID NO:61), 5′-[…] (SEQ ID NO:62), Probe #73; CCL2: 5′-AGTCTCTGCCGCCCTTCT (SEQ ID NO:63), 5′-GTGACTGGGGCATTGATTG (SEQ ID NO:64), Probe #40; CCL27: 5′-[…] (SEQ ID NO:65), 5′-gctgggtggcagtaggaat (SEQ ID NO:66), Probe #18; CXCL1: 5′-[…] (SEQ ID NO:67), 5′-[…] (SEQ ID NO:68), Probe #52; HGF: 5′-[…] (SEQ ID NO:69), 5′-[…] (SEQ ID NO:70), Probe #49; ILIA: 5′-[…] (SEQ ID NO:71), 5′-[…] (SEQ ID NO:72), Probe #6; IL1B: 5′-[…] (SEQ ID NO:73), 5′-[…] (SEQ ID NO:74), Probe #78; IL6: 5′-[…] (SEQ ID NO:75), 5′-gaaggcagcaggcaacac (SEQ ID NO:76), Probe #45; IL8: 5′-[…] (SEQ ID NO:77), 5′-atggttccttccggtggt (SEQ ID NO:78), Probe #72; IL10: 5′-[…] (SEQ ID NO:79), 5′-[…] (SEQ ID NO:80), Probe #67; MMP3: 5′-[…] (SEQ ID NO:81), 5′-[…] (SEQ ID NO:82), Probe #36; PDGFA: 5′-[…] (SEQ ID NO:83), 5′-[…] (SEQ ID NO:84), Probe #80; VEGF: 5′-[…] (SEQ ID NO:85), 5′-[…] (SEQ ID NO:86), Probe #50; P21WAF1(CDKN1A): 5′-[…]

Assay [3] deals with IMR-90 fibroblasts depleted of p53 by shRNA. The assay can be described thus: Prostaglandin treatment of p53-depleted (shp53) IMR-90 fibroblasts (Ki67, cleaved caspase 3). It counts as cell-based, human. Particulars: shp53 cells, 3 days. On the procedure:
For EdU labeling, cells were cultured with EdU (10 μM) for 24 h, fixed in 4% buffered formalin for 10 min, washed in PBS, and permeabilized in 0.5% Triton X-100 for 30 min. Cells were treated as instructed by the manufacturer Life Technologies Cat #C10337). For immunofluorescence, cells were blocked in 10% normal goat serum for 30 min, washed, and incubated overnight in antibodies to Ki67 (Abcam) or cleaved caspase 3 (Cell Signaling). Cell were then washed, incubated in fluorescent secondary antibodies, and mounted using vectashield mounting medium with DAPI.

Assay [4] has as its system bleomycin-induced fibrosis. The following applies: administration; Kida 2016, Genovese 2005; cited from earlier work.

Turning to `CCCCC[C@H](O)/C=C/[C@H]1C(=O)C[C@H](O)[C@@H]1C/C=C\CCCC(=O)O` [PGD2, prostaglandin D2], the IL-6 secretion result in assay [1] is listed as “elevated”. Moreover, in assay [2] (10 μM, 10 days), the “levels of LMNB1 and cellular HMGB1” value is “reduced levels”; the p21 gene expression result is “induced”; the senescence-associated beta-galactosidase entry is on record as “induced”. In assay [2] (10 μM, 10 days, immunoblot), the p21 protein accumulation entry is “induced” and the p53 stabilization result is “stabilized”. In addition, in assay [2] (10 μM, 10 days, western blot), the “p53 phosphorylation or acetylation” value was “without increasing”. The “expression of MMP3 and secretion of IL-6 on removal of the prostaglandin” value in assay [2] (release after 7 days at 10 μM) is “reduced”. For the same compound, in assay [3], the “apoptosis (positivity for cleaved caspase 3)” value is reported as “underwent apoptosis” and the “continued cell division (Ki67 positivity) after loss of p53” value is on record as “did not allow”. In addition, the bleomycin-induced fibrosis result in assay [4] is on record as “attenuate”.
